Measurements as given in US20190169564A1, “METHODS OF CULTURING MICROORGANISMS IN NON-AXENIC MIXOTROPHIC CONDITIONS” (HELIAE DEVELOPMENT, LLC, priority 2012, published 2019).

Columns and labels:
Chlorella = test: Mixotrophic Chlorella culture in bubbled column reactor with pH-auxostat, comparison of organic carbon sources
contaminating bacteria = test: Treatment of bacterial contamination in outdoor raceway pond mixotrophic Chlorella culture (flow cytometry); type: cell-based
Description: Contamination observation (400×, 1000× oil immersion-phase contrast micrograph and cell cytometry with bacterial dying) was performed every 2 days, including a measurement of bacterial contamination by flow cytometry. For bacterial contamination measurement, to each 1 ml sample, 1 μl BacLight™ Green bacterial stain (Invitrogen, Eugene, Oreg., USA) as added, and samples were incubated at room temperature in the dark for 30 to 60 minutes. After incubation, samples were analyzed on a BD FACSAria™ (BD Biosciences, San Jose, Calif., USA) and populations of bacteria and algae were gated based on BacLight™ fluorescence and chlorophyll autofluoresence.
Chlorella sp. SNL333 was grown in a mixotrophic system in the pond raceway systems described above in Example 4. The area of the raceway photobioreactor was 5.6 m^2 with an operating volume of 568 L at a depth of […]. One unit was mixed with a pump (Reactor 1), and the other via a paddle wheel (Reactor 2). Air was delivered to the paddle wheel system via an air stone. Air was delivered to the pumped reactor via a venturi injection system. […] The nitrate level in the modified BG-11 recipe consisted of 400 mg/L, and was determined via the nitrate consumption rates from previous trials. […]
Referring to FIG. 28, the percentage of bacteria to Chlorella in the mixotrophic cultures was quantified using the procedure discussed in the previous examples. […]

Chlorella sp. SNL333 = test: Yield of raceway pond mixotrophic Chlorella culture after contamination treatment; type: cell-based
Description: Chlorella sp. SNL333 was grown in a mixotrophic system in the pond raceway systems described above in Example 4. The area of the raceway photobioreactor was 5.6 m^2 with an operating volume of 568 L at a depth of 15 cm. One unit was mixed with a pump (Reactor 1), and the other via a paddle wheel (Reactor 2). Air was delivered to the paddle wheel system via an air stone. Air was delivered to the pumped reactor via a venturi injection system. Eductors were used in the pumped reactor to increase water velocity and enhance oxygen transfer of the liquid medium. […] The nitrate level in the modified BG-11 recipe consisted of 400 mg/L, and was determined via the nitrate consumption rates from previous trials.
Nitrate levels were adjusted towards the end of the trial to maintain residual nitrate in the system (400 mg/L). Harvests occurred daily throughout the trials. Harvest consisted of 50% of the culture volume daily, with an 80% harvest occurring on day 7. The total trial lasted 12 days for Reactor 1 and 10 days for Reactor 2.
Treatments to control the bacterial population occurred at the time indicated by the vertical dashed line. Reactor 1 received an ozone treatment, and Reactor 2 received an antibiotic treatment. At 190 hours the make-up water for refilling the system was sterilized by chlorination prior to being added to the culture. […]

Description for E. coli: 200 ml of bacteria inoculum from a bacteria contaminated photobioreactor was added to 200 ml of BG-11 culture medium. The solution was split in half, with the first solution receiving 6.84 g of glucose and the second solution receiving 5 g of sodium acetate. The pH and optical density of both solutions was taken. The two solutions were each split into three groups of three separate 100 ml volumes, for a control, 10 mMH2O2, and 20 mMH2O2 treatments. Each volume had 2.092 g of MOPS buffer (Sigma Chemical St. Louis, Mo.), and then placed in an incubator set at 27° C., 96 rpm, and 100 μmol/m^2 s of LED light. The volumes were incubated overnight, then brought to a pH of 7.5 using 10 M NaOH and optical density was measured. The treatments of 10 mM H2O2 and 20 mM H2O2 were then added and incubated for 24 h. Optical density and pH were then measured, and methionine was added to one volume of each treatment. Optical density and pH were measured again on the third day and the sixth day before microscope analysis on the sixth day.
The bacteria cultures in glucose and sodium acetate were treated with 0 mM H2O2 (control), 1 mM H2O2, 2.5 mM H2O2, and 5 mM H2O2.

## CC(=O)O [Acetic Acid, acetic acid]
Chlorella; Day 1, organic carbon source fed by pH-auxostat, 25° C., 24 hour photoperiod
  Mixotrophic Chlorella Daily Productivity: 1.04 g/L day
Chlorella; Day 2
  Mixotrophic Chlorella Daily Productivity: 1.21 g/L day
Chlorella; Day 3
  Mixotrophic Chlorella Daily Productivity: 1.27 g/L day
Chlorella; Day 4
  Mixotrophic Chlorella Daily Productivity: 1.97 g/L day
Chlorella; Day 5
  Mixotrophic Chlorella Daily Productivity: 1.40 g/L day

## OO [H2O2, hydrogen peroxide]
E. coli; 10 mM and 20 mM H2O2, glucose and acetate mediums, 20 mM greater effect than 10 mM
  effect on growth of bacteria cultures: negatively affected the growth of bacteria cultures in both glucose and acetate mediums
E. coli; 1, 2.5 and 5 mM H2O2, one time treatment, glucose and sodium acetate cultures, growth eventually recovers
  inhibitory effect on growth of the bacteria versus H2O2 concentration: inhibitory effect on the growth of the bacteria increased

## O=[O+][O-] [ozone]
Contaminating bacteria; after the treatment (ozone 0.10-0.20 mg/L for 17 h; antibiotic mix of Table 4)
  percentage of bacteria to Chlorella after treatment: 1.4%
Contaminating bacteria; before the treatment
  percentage of bacteria to Chlorella before treatment: 6.5%
Chlorella sp. SNL333
  average yield for the three days after the treatment: 105 g/m^2 d
